The source of these data is US20040067853A1, “Sulfonamide derivative-containing agricultural and horticultural composition” (priority 2001, published 2004).

The subject of data set [1] is Pyrenophora teres. Kind of data set: Protective effect of Pyrenophora teres on barley seedlings (spray, protection value from lesion area ratio; Colby's equation for mixtures). The class given is in vivo. On the procedure:
(§1) Hereunder, the evaluation of each fungicide was carried out by converting the ratio into a protection value after measuring the lesion area ratio (in percentage). The protectin value was calculated by means of the equation as follows.
(§2) protection value=(1−(lesion area in the division treated with fungicide)/lesion area in the division not treated with fungicide))×100
(§3) An estimated protection value of a mixture of active ingredients was calculated according to the Colby's equation [R. S. Colby, Weeds 15, 20-22 (1967)] and compared with the experimental protection value.
(§4) wherein E is the estimated protection value (additive effect) which will be obtained when the active ingredients A and B are used in a mixture in concentrations a and b, respectively, x is the protection value obtained when the active ingredient A is used in a concentration a, and y is the protection value obtained when the active ingredient B is used in a concentration b. […] A protection value 0 means that the lesion area ratio of the plants in the test group is as large as that of the plants in the untreated control group. A protective value 100 means that the plants in the test group are free from the disease.
The supplied compound (that is, the compound to which number (No.) was attached in Table 1), and A (picoxystrobin), B (trifloxystrobin), C (pyraclostrobin), D (cresoxime methyl), E (epoxiconazole), F (flusilazole) and G (tebuconasole) shown in Table 31 were, alone or in a mixture form, dissolved into dimethylformamide (final concentration: 1% by weight). Thereto were added xylene (final concentration: 0.02% by weight) and Tween 20 (trade name) (final concentration: 0.02% by weight), and then the solution was diluted with water to have a desired effective component concentration (ppm). To this solution was added a spreading agent SINDAIN (trade name, made by Takeda Chemical Industries, Ltd.) containing 20% by weight of polyoxyethylene nonylphenyl ether and 12% by weight of calcium ligninsulfonate so as to have a final concentration of 0.05% by weight. Thus, a spray solution was prepared. The solution was sprayed, at a rate of 40 ml/pot, onto barley seedlings (cultural variety: Shiaga Hasseki No. 5) grown for 1 week in a greenhouse. After air drying, a suspension containing spores (5×10^5/ml) of Pyrenophora teres was sprayed and inoculated thereto at a rate of 2 ml/pot. After the inoculation, the seedlings were kept inside a high-humidity box having a temperature of 24° C. for 18 hours and then put into a room. After 9 days, the lesion area ratio on the treated leaves was investigated.

The subject of data set [2] is Alternaria mali. Kind of data set: Prevention effect of Alternaria mali on apple seedlings (spray, protection value from lesion area ratio; Colby's equation for mixtures). The class given is in vivo. On the procedure:
as §1, §2, §3, §4
The supplied compound (that is, the compound to which number (No.) was attached in Table 1-29), and A (picoxystrobin), B (trifloxystrobin), and C (pyraclostrobin) shown in Table 30 were, alone or in a mixture form, dissolved into dimethylformamide (final concentration: 1% by weight). Thereto were added xylene (final concentration: 0.02% by weight) and Tween 20 (trade name) (final concentration: 0.02% by weight), and then the solution was diluted with water to have a desired effective component concentration (ppm). To this solution was added a spreading agent SINDAIN (trade name, made by Takeda Chemical Industries, Ltd.) containing 20% by weight of polyoxyethylene nonylphenyl ether and 12% by weight of calcium ligninsulfonate so as to have a final concentration of 0.05% by weight. Thus, a spray solution was prepared. The solution was sprayed, at a rate of 10 ml/pot, onto the apple seedlings (cultural variety: Star King Delicous) grown for 3 or 4 weeks in a greenhouse. After one day from the treatment, a suspension containing a 1% yeast extract, a 1% sucrose, and spores (5×10^5/ml) of Alternaria mali was sprayed and inoculated thereto at a rate of 1 ml/pot. After the inoculation, the trees were kept inside a high-humidity box having a temperature of 28° C. for 4 days. Thereafter, the lesion area ratio on the treated leaves was examined.

Regarding `Fc1ccc([C@]2(Cn3cncn3)O[C@H]2c2ccccc2Cl)cc1` (racemic) [epoxiconazole, (2RS,3SR)-1-[3-(2-chlorophenyl)-2,3-epoxy-2-(4-fluorophenyl)propyl]-1H-1,2,4-triazole], in data set [1] (5.0 ppm active ingredient), the “Lesion area ratio (%)” value is 15.0% and the Protection value was found to be 70.
For orientation: melting point means the temperature of the solid-liquid transition. Compound `CCN(c1ccc(Cl)cc1[N+](=O)[O-])S(=O)(=O)c1ccc(C)cc1` [Compound No. 289, 4′-chloro-N-ethyl-2′-nitro-p-toluenesulfonanilide] returned a melting point of 132.5 to 134 °C. Further, in data set [1] (0.5 ppm active ingredient), the “Lesion area ratio (%)” value is 17.5% and the Protection value turned out to be 65. In data set [2] (0.4 ppm active ingredient), the “Lesion area ratio (%)” value turned out to be 19.8% and the Protection value was 58. In addition, in data set [2] (1.6 ppm active ingredient), the “Lesion area ratio (%)” value amounted to 19.5% and the Protection value is reported as 59. In data set [2] (6.3 ppm active ingredient), the “Lesion area ratio (%)” value is listed as 3.5% and the Protection value is reported as 93.
As for `CO/N=C(/C(=O)OC)c1ccccc1COc1ccccc1C` [cresoxime methyl], in data set [1] (5.0 ppm active ingredient), the “Lesion area ratio (%)” value was found to be 27.5% and the Protection value was found to be 45.
The corresponding values for `C[Si](Cn1cncn1)(c1ccc(F)cc1)c1ccc(F)cc1` [flusilazole] are 25.0% and 50.
On to `CO/C=C(/C(=O)OC)c1ccccc1COc1cccc(C(F)(F)F)n1` [picoxystrobin, methyl (E)-3-mthoxy-2-{2-[6-(trifluoromethyl)-2-pyridyloxymethyl]phenyl}acrylate], for which the “Lesion area ratio (%)” value was 17.5% in data set [1] (0.2 ppm active ingredient), 11.5% in data set [2] (6.3 ppm active ingredient), 9.5% in data set [2] (25.0 ppm active ingredient) and 6.2% in data set [2] (100.0 ppm active ingredient). Also, the Protection value is 65 in data set [1] (0.2 ppm active ingredient), 76 in data set [2] (6.3 ppm active ingredient), 80 in data set [2] (25.0 ppm active ingredient) and 87 in data set [2] (100.0 ppm active ingredient).
For `COC(=O)N(OC)c1ccccc1COc1ccn(-c2ccc(Cl)cc2)n1` [pyraclostrobin, methyl N-{2-[1-(4-chlorophenyl)-1-H-pyrazol-3-yloxymethyl]phenyl}(N-methoxy)carbamate], the “Lesion area ratio (%)” value in data set [1] (0.2 ppm active ingredient) is given as 12.5%; in data set [2] (6.3 ppm active ingredient), 11.0%; in data set [2] (25.0 ppm active ingredient), 11.0%; in data set [2] (100.0 ppm active ingredient) it was 3.7%. Besides, the Protection value in data set [1] (0.2 ppm active ingredient) amounted to 75; in data set [2] (6.3 ppm active ingredient), 77; in data set [2] (25.0 ppm active ingredient) it was 77; in data set [2] (100.0 ppm active ingredient), 92.
For `CC(C)(C)C(O)(CCc1ccc(Cl)cc1)Cn1cncn1` (centres unmarked) [tebuconasole], in data set [1] (5.0 ppm active ingredient), the “Lesion area ratio (%)” value is 22.5% and the Protection value was found to be 55.
Take `CO/N=C(/C(=O)OC)c1ccccc1CO/N=C(\C)c1cccc(C(F)(F)F)c1` [trifloxystrobin, methyl-(E)-methoxyimino-{(E)-α-[1-(α,α,α-trifluoro-m-tolyl)ethylideneaminooxy]-o-tolyl}acetate]: the “Lesion area ratio (%)” value turned out to be 27.5% in data set [1] (0.2 ppm active ingredient), 61.7% in data set [2] (6.3 ppm active ingredient), 4.7% in data set [2] (25.0 ppm active ingredient) and 2.2% in data set [2] (100.0 ppm active ingredient). For the same compound, the Protection value in data set [1] (0.2 ppm active ingredient) was 45; in data set [2] (6.3 ppm active ingredient) it was 0; in data set [2] (25.0 ppm active ingredient) it was 90; in data set [2] (100.0 ppm active ingredient), 95.
